In patent US11236084B2, “Substituted azaindoline derivatives as NIK inhibitors” (Janssen Pharmaceutica NV, priority 2017, dated 2022):
Where two headings read alike, the source gives them in different places.

How the values were obtained:
[1] = target: T1, recombinant human NF-kappaB-inducing kinase (NIK/MAP3K14) (Homo sapiens, UniProt Q99558); experiment: Biological Assay B: inhibition of auto-phosphorylation of recombinant human NIK/MAP3K14 (AlphaScreen), performed at 2 locations; format: biochemical; details: averaged values
Outline: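 Run at two separate sites: 1 h, 25° C. reactions containing 0.2 nM GST-NIK, 25 microM ATP and compound (1% DMSO) in Tris pH 7.5/MgCl2 buffer. Phosphorylation detected via anti-phospho-IKK Ser176/180 antibody with AlphaScreen beads; IC50 fitted to % inhibition.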

[2] = tested on: P-IKKα levels in L363 (NIK translocated multiple myeloma) cells; experiment: Biological Assay C: effect of compounds on P-IKKα levels in L363 (NIK translocated multiple myeloma) cells, performed at 2 locations; format: cell-based, human; details: averaged values
Outline: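 Human L363 cells were primed 24 h with recombinant human BAFF, then treated 2 h with compound (8-point 1:3 dilutions, 1% DMSO) at 37 °C. IC50 came from a sigmoidal fit of % inhibition versus log concentration, determined at two sites.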

[3] = target: T1, recombinant human NF-kappaB-inducing kinase (NIK/MAP3K14); experiment: Biological Assay A: inhibition of recombinant human NF-kappaB-inducing kinase (NIK/MAP3K14) activity (MBP phosphorylation, Mesoscale); details: MSD MBP; averaged over all measurements on all batches; read-out: Assay A Biochemical (MSD MBP) IC50
Protocol: Pharmacological Part Biological Assay A Inhibition of Recombinant Human NF-kappaB-Inducing Kinase (NIK/MAP3K14) Activity
Assay buffer was 50 mM Tris pH 7.5 containing 1 mM EGTA (ethylene glycol tetraacetic acid), 1 mM DTT (dithiothreitol), 0.1 mM Na3VO4, 5 mM MgCl2, 0.01% Tween® 20. Assays were carried out in 384 well Mesoscale high binding plates which had been coated with myelin basic protein (MBP) and blocked with bovine serum albumin to prevent non-specific protein binding. All compounds tested were dissolved in dimethyl sulfoxide (DMSO) and further dilutions were made in assay buffer. Final DMSO concentration was 1% (v/v) in assays. Incubations consisted of compound (1% DMSO in control and blank wells), 25 μM […] (ATP), and 10 nM NIK/MAP3K14 substituting enzyme with buffer in the blank wells. Incubations were carried out for 1 h at 25° C. and were followed by washing and sequential incubation with rabbit anti-phospho-MBP and anti-rabbit Ig Sulfotag antibody before reading bound Sulfotag on a Mesoscale Discovery. Signal obtained in the wells containing blank samples was subtracted from all other wells and […] were determined by fitting a sigmoidal curve to % inhibition of control versus Log10 compound concentration.
Data for the compounds of the invention in the above assays are provided in Table A (the values in Table are averaged values over all measurements on all batches of a compound; values as IC50 (nM)). (‘n.c.’ means not calculated: ‘Co.’ means compound)

[4] = location 1, NIK auto-phosphorylation, AlphaScreen, read-out: Assay B location 1 IC50
[5] = Homo sapiens, L-363, location 2, L363 cells, P-IKKα levels, read-out: Assay C location 2 IC50
[6] = location 2, AlphaScreen auto-phosphorylation, read-out: Assay B location 2 IC50

T1 sequence (Q99558 whole entry): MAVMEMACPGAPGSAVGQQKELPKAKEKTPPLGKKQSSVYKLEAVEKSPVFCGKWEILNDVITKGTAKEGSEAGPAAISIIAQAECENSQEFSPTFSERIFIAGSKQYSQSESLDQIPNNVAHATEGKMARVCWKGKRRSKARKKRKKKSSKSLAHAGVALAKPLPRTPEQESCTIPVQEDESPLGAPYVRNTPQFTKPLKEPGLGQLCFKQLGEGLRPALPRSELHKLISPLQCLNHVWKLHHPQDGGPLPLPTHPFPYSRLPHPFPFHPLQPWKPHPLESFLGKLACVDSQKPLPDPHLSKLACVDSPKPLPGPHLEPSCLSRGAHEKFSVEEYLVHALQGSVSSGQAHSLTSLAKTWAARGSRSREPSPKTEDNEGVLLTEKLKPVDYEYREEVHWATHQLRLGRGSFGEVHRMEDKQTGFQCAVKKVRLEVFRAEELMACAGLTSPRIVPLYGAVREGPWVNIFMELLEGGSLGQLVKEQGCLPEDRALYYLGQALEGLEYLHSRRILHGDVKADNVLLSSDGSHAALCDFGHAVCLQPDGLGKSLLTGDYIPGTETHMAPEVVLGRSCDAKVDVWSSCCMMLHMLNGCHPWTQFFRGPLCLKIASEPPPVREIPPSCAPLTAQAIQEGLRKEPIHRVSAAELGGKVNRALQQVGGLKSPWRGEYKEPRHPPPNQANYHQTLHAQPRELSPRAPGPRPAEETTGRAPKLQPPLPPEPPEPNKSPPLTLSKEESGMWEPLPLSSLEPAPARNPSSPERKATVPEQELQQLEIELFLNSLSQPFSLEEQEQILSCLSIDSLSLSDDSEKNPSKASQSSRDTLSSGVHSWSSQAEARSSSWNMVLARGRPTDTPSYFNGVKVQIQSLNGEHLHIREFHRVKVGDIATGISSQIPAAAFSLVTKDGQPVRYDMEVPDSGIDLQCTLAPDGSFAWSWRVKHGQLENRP

SMILES | IC50 [1, 4] [µM] | melting point [°C] | further results
COc1ccc(Cl)cc1Nc1nccc(-c2cnc3c(c2)C(C)(CO)CN3)n1 (stereo not shown) [Compound 354] | 0.003 | 236 | 
Cc1ccc(Cl)cc1Nc1nccc(-c2cnc3c(c2)C(C)(CO)CN3)n1 (stereo not shown) [Compound 355] | 0.0025 | 221 | 
COCCOc1ccc(Cl)cc1Nc1nccc(-c2cnc3c(c2)C(C)(CO)CN3)n1 (stereo not shown) [Compound 356] | 0.0246 | 208 | 
COc1ccc(Cl)cc1Nc1nccc(-c2cnc3c(c2)C(C)(C)CN3)n1 [Compound 353] | 0.0724 | 210 | 
Cc1cc(C(=O)NC2CCOCC2)ccc1Nc1nccc(-c2cnc3c(c2)C(C)(CC#N)CN3)n1 (stereo not shown) [Compound 126] |  |  | IC50 [3]: 0.0087 µM; IC50 ([1]; location 1, AlphaScreen auto-phosphorylation, read-out: Assay B location 1 IC50): 0.0148 µM; IC50 [2, 5]: 0.537 µM
CC(=O)NCc1ccc(Nc2nccc(-c3cnc4c(c3)C(C)(C)CN4)n2)c(OC(F)F)c1 [Compound 85] |  |  | IC50 [3]: 0.0141 µM; IC50 [1, 6]: 0.003 µM; IC50 [2, 5]: 0.0676 µM
Cc1cc(C(=O)N2CCS(=O)(=O)CC2)ccc1Nc1nccc(-c2cnc3c(c2)C(C)(CO)CN3)n1 (stereo not shown) [Compound 134] |  |  | IC50 [3]: 0.0039 µM; IC50 [1, 6]: 0.0044 µM; IC50 [2, 5]: 0.776 µM

Now from value to compound, other results behind:

IC50 [1, 4] [µM] | melting point [°C] | SMILES | further results
0.295 | > 250 | COc1cc(C(=O)NC2CCOCC2)ccc1Nc1ncc(Cl)c(-c2cnc3c(c2)C(C)(CO)CN3)n1 (single isomer, unassigned) [Compound 350] | 
0.0191 | > 250 | COc1cc(N2CC3(CCOCC3)C2)c(Cl)cc1Nc1ncc(F)c(-c2cnc3c(c2)C(C)(CO)CN3)n1 (stereo not shown) [Compound 345] | 
0.144 | > 250 | COc1cc(N2CC3(CCOCC3)C2)c(Cl)cc1Nc1ncc(Cl)c(-c2cnc3c(c2)C(C)(CO)CN3)n1 (single isomer, unassigned) [Compound 347] | 
0.0032 | > 260 | COc1cc(N2CCC(O)CC2)c(Cl)cc1Nc1nccc(-c2cnc3c(c2)C(C)(CO)CN3)n1 (single isomer, unassigned) [Compound 16] | IC50 ([2]; location 1, P-IKKα levels in L363 cells, 2 hr treatment, read-out: Assay C location 1 IC50): 0.0191 µM
0.0036 | > 250 | COc1cc(C(=O)NC2CCOCC2)ccc1Nc1ncc(F)c(-c2cnc3c(c2)C(C)(CO)CN3)n1 (single isomer, unassigned) [Compound 349] | 
